Experimental data from US20240067625A1, “SMALL-MOLECULE MODULATORS OF THE ORPHAN NUCLEAR RECEPTOR TLX” (priority 2020, published 2024).

How the values were obtained:
TLX LBD = TLX LBD (Homo sapiens (Human), UniProt Q9Y466); assay: ALPHA screen assay for TLX LBD and coactivator peptide recruitment; type: biochemical; details: for Normalized fold increase at 200 μM: Table 2; for EC50 / Average ALPHA signal at 200 μM (std. dev.): Table 3; for Average ALPHA signal at 200 μM (std. dev.): mean (std. dev.)
Protocol: Assays were performed according to the manufacturer's protocol (PerkinElmer, USA), with the following modifications: Ligands were tested for TLX-coactivator binding in 50 mM phosphate buffer, 150 mM NaCl, pH 7, 1 mM DTT and 100 μM CHAPS. Ligands were dissolved and diluted in DMSO as stocks and were prepared in assay buffer from the original stock in the 100% DMSO and added to the assay plate. Biotinylated SRC peptide and polyhistidine tagged TLX LBD were diluted in assay buffer, subsequently added to respective ALPHA beads, under low light. The plates were spun down, mixed with a shaker and incubated for 120 minutes and read on a TECAN Plate reader using the manufacturer's protocol.

[1] = test system: neural stem and progenitor cells in the adult hippocampal neurogenic niche; assay: In vivo neurogenesis study: neural stem cell proliferation (CldU) after oral dosing; set-up: species or system C57BL/6J mice; details: 3 mg/kg oral gavage daily for 5 days; CldU labelling; FIG. 11
Protocol: Small Molecule Oral Gavage Delivery and Chloro-Deoxyuridine (CldU) Injections. Small molecule candidates (3 mg/kg of animal) were delivered through oral gavage to animals (N=3-4) each day at the same time for 5 consecutive days. On the final day, animals received four consecutive IP injections of CldU (85 mg/kg dissolved in sterile saline) 2 hr apart.
Immunohistochemistry. Animals were anesthetized and perfused transcardially with 30 ml of phosphate buffered saline (PBS) followed by 30 ml of 4% (w/v) ice cold paraformaldehyde (PFA) in PBS. Brains were post fixed in 4% PFA solution overnight at 4° C. PFA was replaced with PBS and tissues were kept at 4° C. for further use. Free floating serial sagittal sections of 50 μm thickness were cut using Vibratome 1500 sectioning system and collected in 5 parallel sets each containing 14 sections 250 μm apart from each other. […] Following initial permeabilization and blocking at room temperature (RT) for 2 hrs, sections were incubated with primary antibodies overnight at 4° C. Sections were then washed three times and incubated with fluorochrome-conjugated secondary antibodies for 2 hrs at RT. Sections were washed three times with PBS and mounted on slides with DakoCytomation Fluorescent Mounting Medium (DakoCytomation, Carpinteria, CA) as anti-fading agent.
Sections were counterstained with DAPI (5 μg/mL, Sigma) at 1:1000.
Confocal microscopy and stereology. Quantification and characterization of proliferating cell types was performed according to previously described optical dissector methods. […] An observer blind to experimental groups counted immunoreactive cells that had the mentioned properties below in every fifth sagittal section throughout the dentate gyrus. Neural stem cells were identified according to their triangular Sox2^+ nuclei located in SGZ with a GFAP^+ radial process spanning through granule cell layer.
For quantification that required analysis of phenotypic morphology and/or overlapping markers, 20 μm thick sections were scanned with confocal microscope (Zeiss LSM 710). 3D reconstruction and orthogonal views were acquired via ZEN2012 SP1 software (Zeiss, Thornwood, NY). Cells in the uppermost focal plane were excluded from the quantification. Total counts from 14 sections were multiplied by 10 to get the total number of cells in two dentate gyri. The ratio of CldU^+ cells among a certain cell type was calculated by dividing the CldU^+ cells by the total number of cells in that cell type.
Statistics. Statistical analysis was performed using GraphPad Prism 8.0 (GraphPad RRID:SCR_002798). Experiments involving 2 groups were compared using un-paired Student t-test. […]

TLX LBD, sequence (Q9Y466 155-383): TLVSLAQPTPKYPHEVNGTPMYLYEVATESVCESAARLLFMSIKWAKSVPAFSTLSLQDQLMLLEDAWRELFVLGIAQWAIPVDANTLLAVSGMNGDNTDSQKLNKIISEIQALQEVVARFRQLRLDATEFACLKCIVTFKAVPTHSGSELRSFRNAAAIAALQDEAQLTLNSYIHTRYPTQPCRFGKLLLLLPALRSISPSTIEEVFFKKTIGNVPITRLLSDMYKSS

CC(C)CCNc1ncccc1C(=O)N1CCN(Cc2ccccc2)[C@@H](C)C1 [Compound 2, (S)-(4-benzyl-3-methylpiperazin-1-yl)(2-(isopentylamino)pyridin-3-yl)methanone]
Normalized fold increase at 200 μM (TLX LBD): 2.45X
EC50 (TLX LBD): 0.0637 nM
Average ALPHA signal at 200 μM (std. dev.) (TLX LBD): 2.45 (0.05)
cell proliferation of neural stem and progenitor cells in the adult hippocampal neurogenic niche [1]: increase in cell proliferation

CC(C)CCNc1ncccc1C(=O)N1CCN(Cc2ccccc2)C[C@@H]1C [Compound 4, (S)-(4-benzyl-2-methylpiperazin-1-yl)(2-(isopentylamino)pyridin-3-yl)methanone]
Normalized fold increase at 200 μM (TLX LBD): 2.29X
EC50 (TLX LBD): 0.0298 nM
Average ALPHA signal at 200 μM (std. dev.) (TLX LBD): 2.29 (0.09)
cell proliferation of neural stem and progenitor cells in the adult hippocampal neurogenic niche [1]: increase in cell proliferation

CC(C)CCNc1ncccc1C(=O)N1CCN(Cc2ccccc2)[C@H](C)C1 [Compound 1, (R)-(4-benzyl-3-methylpiperazin-1-yl)(2-(isopentylamino)pyridin-3-yl)methanone]
Normalized fold increase at 200 μM (TLX LBD): 1.97X
EC50 (TLX LBD): 0.0853 nM
Average ALPHA signal at 200 μM (std. dev.) (TLX LBD): 1.97 (0.07)
cell proliferation of neural stem and progenitor cells in the adult hippocampal neurogenic niche [1]: increase in cell proliferation

COc1cccc(CN2CCN(C(=O)c3cccnc3NCCC(C)C)[C@H](C)C2)c1 [Compound 51]
EC50 (TLX LBD): 0.0199 nM
Average ALPHA signal at 200 μM (std. dev.) (TLX LBD): 2.98 (0.10)

COC(=O)C[C@H]1CN(C(=O)c2cccnc2NCCC(C)C)C[C@@H](C)N1Cc1ccccc1 [Compound 63]
EC50 (TLX LBD): 0.0123 nM
Average ALPHA signal at 200 μM (std. dev.) (TLX LBD): 2.72 (0.05)

CC(C)CCNc1ncccc1C(=O)N1CCN(Cc2ccccc2)C[C@H]1CC(C)C [Compound 93]
Average ALPHA signal at 200 μM (std. dev.) (TLX LBD): 3.46 (0.10)

C[C@H]1CN(C(=O)c2cccnc2NC2CC2)CCN1Cc1ccccc1 [Compound 91]
Average ALPHA signal at 200 μM (std. dev.) (TLX LBD): 1.48 (0.04)

CC(C)CCNc1ncccc1C(=O)N1CCN(Cc2ccccc2)C[C@H]1C [Compound 3, (R)-(4-benzyl-2-methylpiperazin-1-yl)(2-(isopentylamino)pyridin-3-yl)methanone]
Normalized fold increase at 200 μM (TLX LBD): 2.49X
EC50 (TLX LBD): 0.0281 nM
Average ALPHA signal at 200 μM (std. dev.) (TLX LBD): 2.49 (0.12)
cell proliferation of neural stem and progenitor cells in the adult hippocampal neurogenic niche [1]: increase in cell proliferation

CCCCCCN1CCN(C(=O)c2cccnc2NCCC(C)C)[C@H](C)C1 [Compound 47]
EC50 (TLX LBD): 0.0125 nM
Average ALPHA signal at 200 μM (std. dev.) (TLX LBD): 7.81 (0.45)

CC(C)CCNc1ncccc1C(=O)N1CCN(Cc2ccccn2)C[C@H]1C [Compound 46]
Average ALPHA signal at 200 μM (std. dev.) (TLX LBD): 0.86 (0.09)

CC(C)CCNc1ncccc1C(=O)N1CCN(CCC2CCN(C(=O)OC(C)(C)C)CC2)C[C@@H]1C [Compound 41]
EC50 (TLX LBD): 0.00585 nM
Average ALPHA signal at 200 μM (std. dev.) (TLX LBD): 2.73 (0.13)

CCCCN1CCN(C(=O)c2cccnc2NCCC(C)C)[C@H](C)C1 [Compound 49]
EC50 (TLX LBD): 0.0332 nM
Average ALPHA signal at 200 μM (std. dev.) (TLX LBD): 3.09 (0.12)

COC(=O)c1cccc(CN2CCN(C(=O)c3cccnc3NCCC(C)C)CC2)c1 [Compound 56]
EC50 (TLX LBD): 0.0442 nM
Average ALPHA signal at 200 μM (std. dev.) (TLX LBD): 2.74 (0.08)

COC(=O)C[C@@H]1CN(Cc2ccccc2)[C@@H](C)CN1C(=O)c1cccnc1NCCC(C)C [Compound 74]
EC50 (TLX LBD): 0.00982 nM
Average ALPHA signal at 200 μM (std. dev.) (TLX LBD): 2.96 (0.08)

CC(C)CCNc1ncccc1C(=O)N1C[C@@H](C)N(Cc2ccccc2)C[C@@H]1CC(=O)O [Compound 84]
Average ALPHA signal at 200 μM (std. dev.) (TLX LBD): 1.09 (0.01)
